From patent US10940201B2, “Nucleic acid derivative having immunostimulatory activity” (Shionogi & Co., Ltd., priority 2015, dated 2021)
In the oligonucleotide strings, read from the 5' end, every base follows the letter of its sugar. An asterisk marks phosphorothioate; unmarked linkages are phosphodiester. Other units and linkages are bracketed, terminal groups are in braces. A string of capitals states the bases alone. d = 2'-deoxy (DNA)

Key:
TRP2-specific CTL [1] = assay: CTL inducibility of TRP2 peptide vaccine with adjuvant (tetramer staining); type: in vivo, C57BL/6JJcl mice
Protocol: (§1) C57BL/6JJcl mice (6 to 8 weeks old) were purchased from CLEA Japan, Inc.
(§2) an adjuvant of the present invention or the well-known CpG ODN
The specific immunity was induced by vaccinating a mouse twice at 7 days intervals. Each vaccine was that 100 μg of TRP2 peptide, and 1.57 or 4.71 nmol of an adjuvant of the present invention or well-known CpG ODN, were dissolved in 1×PBS. 100 μL of the vaccine was administered subcutaneous injection on the flank of a mouse.
100 μL of the emulsion vaccine was administered subcutaneous injection on the flank of a mouse twice at 7 days intervals.
(§3) On 7 days after second vaccination, the blood was collected, red blood cells was removed by BD Pharm Lyse (BD pharmingen), and the white blood cells were suspended in FACS buffer (1% fetal bovine serum, 2 mM PBS with EDTA). Anti-mouse CD16/32 monoclonal antibody (BioXcell) was added thereto, and Fc receptor blocking was carried out at 4° C. for 30 minutes. […] Then, staining was carried out with DAPI (Invitrogen) and the cells were washed twice with FACS buffer. It was resuspended in FACS buffer and analyzed by FACS verse Flow Cytometer (BD bioscience) and FAC Suite software (BD bioscience). For analysis, after DAPI negative fraction was gated, white blood cells fraction were provided using forward and side-way scattering as indicators. In the white blood cells fraction, both positive cells of Alexa 647-CD8 and PE-H-2Kb Tetramer were defined as CTLs. CTL ratio in white blood cells was used for evaluation.
After calculation of the average CTL inducibility of each group per experiment, the ratio against average value of CTL inducibility of ssCpG ODN, ODN1826 (SEQ-1) or ODN2006 (SEQ-49) as a control was calculated.
In the case of an adjuvant comprising ODN1826 (Average of CTL inducibility of the adjuvant group)/(Average of CTL inducibility of the ODN1826 group)=the ratio against average value In the case of an adjuvant comprising ODN2006 (Average of CTL inducibility of the adjuvant group)/(Average of CTL inducibility of the ODN2006 group)=the ratio against average value
CTL inducibility of each adjuvant was shown when CTL inducibility of ssCpG ODN was taken as 1, so the bigger value means the higher CTL inducibility.

[2] = test system: antigen-specific CTL (OVA peptide); assay: CTL inducibility of OVA peptide vaccine with adjuvant (tetramer staining); type: in vivo, C57BL/6JJcl mice; conditions: Table 32, 1.57 nmol/head, ODN1826 (SEQ-1) group = 1
Protocol: as §1, §2
The specific immunity was induced by vaccinating a mouse twice at 7 days intervals. […] 100 μL of the vaccine was administered subcutaneous injection on the flank of a mouse.
as §3, with “CTL ratio in white blood cells was used for evaluation.” left out
After calculation of the average CTL inducibility of each group per experiment, the ratio against average value of CTL inducibility of ssCpG ODN, ODN1826 (SEQ-1) or ODN2006 (SEQ-49) as a control was calculated. […]

B16F10 cells = assay: Anti-tumor effect of TRP2 peptide vaccine using an adjuvant; type: in vivo, mouse
Protocol: After immunization by TRP2 peptide vaccine, B16F10 cells (ATTC) which is mouse melanoma expressing TRP2 protein was subcutaneously transplanted to evaluate anti-tumor effect. […] The major and minor axes of the engrafted tumor were measured every 2 to 3 days, and the tumor volume was calculated by the formula: (major axis×minor axis^2)/2 Calculation method for indicators of anti-tumor effect For the adjuvant comprising ODN1826 100·(average tumor volume of adjuvant group)/(average tumor volume of ODN1826 group) For the adjuvant comprising ODN2006 100·(average tumor volume of adjuvant group)/(average tumor volume of ODN2006 group)

tumor growth = assay: Anti-tumor effect (tumor inhibition rate) of OVA peptide vaccine with adjuvant; type: in vivo, mouse; conditions: Table 32, 1.57 nmol/head, compared to ODN1826 (SEQ-1)
Protocol: After immunization by TRP2 peptide vaccine, B16F10 cells (ATTC) which is mouse melanoma expressing TRP2 protein was subcutaneously transplanted to evaluate anti-tumor effect. In a similar method to Example 3 A), on the next day that tetramer-positive ratio in peripheral blood of mouse vaccinated twice every 7 days was observed, B16F10 cells (1×10^5 cells/mouse) were subcutaneously transplanted in the right shoulder. The major and minor axes of the engrafted tumor were measured every 2 to 3 days, and the tumor volume was calculated by the formula: (major axis×minor axis^2)/2 Calculation method for indicators of anti-tumor effect For the adjuvant comprising ODN1826 100·(average tumor volume of adjuvant group)/(average tumor volume of ODN1826 group) For the adjuvant comprising ODN2006 100·(average tumor volume of adjuvant group)/(average tumor volume of ODN2006 group)
The compound with bigger value has the stronger anti-tumor activity.
The activity of an adjuvant of the present invention having a lipid comprising two acyl chains comprising 10 to 20 carbon atoms as a ligand was examined with OVA peptide.

recombinant PCRV protein = assay: Inducibility of antibody production in immunization by PCRV antigen vaccine (antibody titer); type: in vivo; conditions: A/J mice, recombinant PCRV protein with adjuvant, intradermal; antiserum Day 33; FIG. 15
Protocol: Perv nucleotide sequence (SEQ ID NO: 48) derived from Pseudomonas aeruginosa Strain PAO1 was cloned at NdeI-XhoI site in pET21a vector, and Escherichia coli strain BL21 (DE3) was transformed with the prepared plasmid. Strain perV-BL21 (DE3) was cultured in 500 mL of LB/Ampicillin liquid medium at 37° C., and 200 μL of 0.1 M IPTG was added when OD600 became 0.5 to induce expression of recombinant PCRV protein. After culturing at 16° C. for 18 hours, bacteria was separated by a centrifuge, and 15 ml of Buffer A (50 mM Tris-HCl (pH8.0), 0.2M NaCl) comprising 0.5% lysozyme (SIGMA Corporation) was added. After putting at 4° C. for 30 minutes, ultrasonic treatment was carried out. After centrifugation at 12,000 rpm for 10 minutes, soluble fraction was obtained. 1 mL of Ni-NTA agarose gel (QIAGEN) was added to Polyprep column (BIO-RAD Laboratories, Inc) and equilibrated with 10 mL of Buffer A. Soluble fraction was added to the column and passed. […] The resulting recombinant PCRV protein was measured the concentration with BCA assay kit (PIERCE) and kept at −80° C. […]
Antibody titer was measured as blow. […] 20 μL/well of 0.5 N sulfuric acid (Nacalai) was added, and absorbance at 450 nm was measured with a plate reader. The dilution ratio when absorbance at 450 nm is 1.0 was calculated and put as an antibody titer.

human TLR9 = target: T1, human TLR9 (Homo sapiens, UniProt Q9NR96); assay: Reporter assay with HEK-Blue hTLR9 cells (TLR9 agonist activity); type: cell-based; conditions: Table 30; CpG oligonucleotides except for ODN2006 and their double strands; read-out: EC50
T1 construct: host or cells: HEK-Blue hTLR9 cells (HEK293)
T1 sequence (Q9NR96 26-1032): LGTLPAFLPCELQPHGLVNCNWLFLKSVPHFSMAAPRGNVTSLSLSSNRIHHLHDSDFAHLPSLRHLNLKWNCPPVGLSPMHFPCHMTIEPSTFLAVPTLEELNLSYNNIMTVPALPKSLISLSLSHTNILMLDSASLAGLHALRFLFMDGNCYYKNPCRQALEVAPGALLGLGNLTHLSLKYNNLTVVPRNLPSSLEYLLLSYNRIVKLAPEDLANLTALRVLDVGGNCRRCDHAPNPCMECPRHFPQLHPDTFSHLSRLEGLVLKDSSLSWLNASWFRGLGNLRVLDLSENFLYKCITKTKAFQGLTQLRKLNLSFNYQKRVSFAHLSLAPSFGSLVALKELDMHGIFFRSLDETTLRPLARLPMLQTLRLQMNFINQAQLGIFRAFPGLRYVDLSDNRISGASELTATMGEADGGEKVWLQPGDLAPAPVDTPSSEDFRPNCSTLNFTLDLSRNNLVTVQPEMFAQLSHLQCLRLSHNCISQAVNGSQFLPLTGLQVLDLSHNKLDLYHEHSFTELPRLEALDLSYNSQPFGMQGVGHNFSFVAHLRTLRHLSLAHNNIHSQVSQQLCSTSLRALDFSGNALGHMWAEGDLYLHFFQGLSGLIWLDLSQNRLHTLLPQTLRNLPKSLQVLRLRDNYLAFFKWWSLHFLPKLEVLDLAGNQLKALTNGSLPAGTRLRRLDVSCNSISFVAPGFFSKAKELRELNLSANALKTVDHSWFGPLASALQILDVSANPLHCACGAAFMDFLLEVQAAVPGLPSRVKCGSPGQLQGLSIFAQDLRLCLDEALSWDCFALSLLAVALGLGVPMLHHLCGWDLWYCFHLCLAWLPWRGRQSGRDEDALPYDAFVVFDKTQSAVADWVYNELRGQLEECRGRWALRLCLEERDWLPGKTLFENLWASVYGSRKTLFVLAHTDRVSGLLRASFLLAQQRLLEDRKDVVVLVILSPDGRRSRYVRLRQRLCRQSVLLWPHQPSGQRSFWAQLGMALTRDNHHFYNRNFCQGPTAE
Protocol: HEK-Blue™ hTLR9 cells (Invivogen) used for the reporter assay were made by introducing human TLR9 gene and a reporter gene that secretory alkaline phosphatase gene bound to NF-kB-AP-1 binding region sequence in HEK293 cells, and are the cells stably expressing the both genes. 3.6×10^4 of the cells suspended in HEK-Blue™ Detection ([…]) comprising substrates against the alkaline phosphatase were seeded on the 96 well plate, and 3 nM to 30 μM of a lipid binding double-stranded oligonucleotide of the present invention, the known CpG oligonucleotides (ODN2006, SEQ-49), or adjuvant based on design in Patent Document 1, i.e., ssCpG ODN introducing a lipid ligand (SEQ-142, 143 or 144) was added. After culturing in a 37° C., 5% CO2 incubator for 16 hours, absorbency at 620 nm was measured using the culture supernatant developed a color. The result value was analyzed with TIBCO Spotfire software, and calculated the 50% effective concentration (EC50) of each oligonucleotide.

TRP2-specific CTL [3] = assay: CTL inducibility of TRP2 peptide vaccine with adjuvant (tetramer staining); type: in vivo, C57BL/6JJcl mice; remark: listed apart in the source
[4] = Table 56, 4.71 nmol, SEQ-256 (D35-CpG) group = 1
[5] = Table 65, 4.71 nmol, respective ssCpG ODN (ODN2216, ODN684, D-LS01) group = 1

Substance: ODN1826 [SEQ-1]
- Ratio of average value of antigen-specific CTL (TRP2-specific CTL [1]; Table 31, 1.57 nmol/head, ODN1826 (SEQ-1) group = 1): 1.00
- Ratio of average value of antigen-specific CTL (TRP2-specific CTL [1]; Table 33, 1.57 nmol/head, ODN1826 (SEQ-1) group = 1): 1.00
- Ratio of average value of antigen-specific CTL (TRP2-specific CTL [1]; Table 34, 1.57 nmol/head, ODN1826 (SEQ-1) group = 1): 1.00
- Ratio of average value of antigen-specific CTL (TRP2-specific CTL [1]; Table 35, 1.57 nmol/head, ODN1826 (SEQ-1) group = 1): 1.00
- Ratio of average value of antigen-specific CTL (TRP2-specific CTL [1]; Table 36, 1.57 nmol/head (Montanide 100 μL), ODN1826 (SEQ-1) group = 1): 1.00
- Ratio of average value of antigen-specific CTL (TRP2-specific CTL [1]; Table 37, 1.57 nmol/head, ODN1826 (SEQ-1) group = 1): 1.00
- CTL inducibility (in words) (TRP2-specific CTL [1]; adjuvants comprising ODN1826): TRP2-specific CTL was induced
- Ratio of average value of antigen-specific CTL [2]: 1.00
- effect of inhibition on tumor progression of B16F10 cells (in words) (B16F10 cells): little effect of inhibition on tumor progression of B16F10 cells
- Tumor inhibition rate (Day 14 after transplantation) (B16F10 cells; Table 37, 1.57 nmol/head, compared to ODN1826 (SEQ-1)): 0.00%
- Tumor inhibition rate (Day 14 after transplantation) (tumor growth): 0.00%

Substance: PCRV protein: recombinant PCRV protein C-end HIS derived from Pseudomonas aeruginosa Strain PAO1, antigen given without adjuvant as control
- antibody titer (dilution ratio when absorbance at 450 nm is 1.0) (recombinant PCRV protein): 1.3×10^5

Substance: SEQ-253 (sense dA*dT*dC*dG*dA*dC*dT*dC*dT*dC*dG*dA*dG*dC*dG*dT*dT*dC*dT*dC)
- EC50 (human TLR9): 2.87 µM

Substance: SEQ-256 (sense dG*dGdTdGdCdAdTdCdGdAdTdGdCdAdGdGdGdG*dG*dG)
- EC50 (human TLR9): 3420 µM
- Ratio of average value of antigen-specific CTL (TRP2-specific CTL [3]; [4]): 1.00

Substance: SEQ-258 (sense GGTGCATCGATGCAGGGGGG; antisense CCCCCCTGCATCGATG; phosphorothioate, 5' L4-18 lipid, chemistry not fully specified)
- EC50 (human TLR9): 16.3 µM
- Ratio of average value of antigen-specific CTL (TRP2-specific CTL [3]; [4]): 2.46

Substance: SEQ-342 (dT*dC*dG*dA*dC*dG*dT*dT*dC*dG*dT*dC*dG*dT*dT*dC*dG*dT*dC*dG*dT*dT*dC)
- EC50 (human TLR9): 2.34 µM
- Ratio of average value of antigen-specific CTL (TRP2-specific CTL [3]; [5]): 1.00

Substance: SEQ-345 (dT*dC*dG*dC*dG*dA*dC*dG*dT*dT*dC*dG*dC*dC*dC*dG*dA*dC*dG*dT*dT*dC*dG*dG*dT*dA)
- EC50 (human TLR9): 6.28 µM
- Ratio of average value of antigen-specific CTL (TRP2-specific CTL [3]; [5]): 1.00

Substance: SEQ-351 (dT*dC*dG*dT*dC*dG*dT*dT*dT*dT*dC*dG*dG*dC*dG*dC*dG*dC*dG*dC*dC*dG)
- EC50 (human TLR9): 11.6 µM

Substance: SEQ-354 (dT*dC*dG*dT*dC*dG*dT*dC*dG*dT*dT*dC*dG*dA*dA*dC*dG*dA*dC*dG*dT*dT*dG*dA*dT)
- EC50 (human TLR9): 16900 µM
- Ratio of average value of antigen-specific CTL (TRP2-specific CTL [1]; Table 66, 4.71 nmol, SEQ-354 (ODN M362) group = 1): 1.00
